SMILES strings stand for the structures. ≈ marks a conversion by molar mass, not a printed value.

Consider 72 molecules from PubChem BioAssay AID1996.

For the series the following is noted: buffer; pH 7.4; 200.0 µM.
`CCc1cccc(NC(=O)CC2SC(N3CCCC3)=NC2=O)c1` (configuration not stated) yielded a kinetic solubility of more than 49.7 µg/mL.

Molecule `N#C/C(=C\c1cccs1)C(=O)c1ccccc1` came in with a solubility (kinetic) of 26.3 µg/mL (≈ 110 µM).

In turn, `O/N=C/c1ccc2cccc(OCc3ccccc3)c2n1` displayed a kinetic solubility of 2.1 µg/mL (≈ 7.55 µM).

`Cn1c(=O)c([N+](=O)[O-])c(N2CCSCC2)c2ccccc21` showed a kinetic solubility of 2.2 µg/mL (≈ 7.2 µM). The solubility kinetic values of the last two molecules are within 1.5-fold of each other.

For `Cc1ccc(C(=O)NCC(=O)OCC(=O)c2c(N)n(C)c(=O)n(C)c2=O)cc1C`, the solubility (kinetic) worked out at 7.3 µg/mL (≈ 18.1 µM).

Consider `O=C(NCc1ccccn1)c1cccc(S(=O)(=O)N2CCc3ccccc32)c1`, for which the kinetic solubility came out at 21 µg/mL (≈ 53.4 µM).

Regarding `O=C(O)/C=C\C(=O)Nc1ccc(F)c(F)c1F`, the kinetic solubility was found to be 34.3 µg/mL (≈ 140 µM).

`O=C1OC(c2ccc(F)cc2)=N/C1=C\C=C/c1ccccc1`: the kinetic solubility was 19.6 µg/mL (≈ 66.8 µM).

In the case of `CC(C)NC(=O)N1CCC(c2nc3ccccc3s2)CC1`, the kinetic solubility was more than 45.5 µg/mL.

Regarding `O=[N+]([O-])c1ccc(Cl)cc1NCc1cccnc1`, the kinetic solubility is more than 39.6 µg/mL.

Take `O=C(NC(=S)N1CCCC1)c1ccc(Cl)cc1Cl`: the solubility (kinetic) came to 32.5 µg/mL (≈ 107 µM).

The molecule `Cc1nc2sc3c(c2c(=O)[nH]1)CCCCC3` gave a solubility (kinetic) of 2 µg/mL (≈ 8.54 µM).

Turning to `Cc1cn(CCC(=O)Nc2ccccc2N2CCOCC2)c2ccccc12`, the kinetic solubility amounted to 27.5 µg/mL (≈ 75.7 µM).

For `C=CCN1CCN(C(=O)CSc2ccccc2)CC1`, the kinetic solubility was more than 41.5 µg/mL.

`Cc1cc(Br)ccc1NC(=S)NCCc1ccccc1` had a solubility (kinetic) of 8.6 µg/mL (≈ 24.6 µM).

In turn, `COCCn1c(N)c(N(Cc2ccccc2)C(=O)c2cc(=O)[nH]c3ccccc23)c(=O)[nH]c1=O` registered a solubility (kinetic) of more than 69.2 µg/mL.

`COc1ccc(C(=O)NC(C)c2cccnc2)cc1S(=O)(=O)N(C)Cc1ccccc1` (configuration not stated) registered a kinetic solubility of 47 µg/mL (≈ 107 µM).

Consider `CN1c2ccccc2C(=O)C(=C2SCCCS2)S1(=O)=O`, for which the kinetic solubility worked out at 27 µg/mL (≈ 82.5 µM).

As to `O=C(CSc1ccsc1[N+](=O)[O-])NCc1ccccc1`, the solubility (kinetic) stood at 9 µg/mL (≈ 29.2 µM).

`CC(C)N(C(=S)Nc1ccc(S(=O)(=O)N2CCOCC2)cc1)c1ccccc1` displayed a kinetic solubility of 7.1 µg/mL (≈ 16.9 µM).

`CCOC(=O)c1c(NC(=O)Nc2ccc(C)cc2)sc2c1CCN(C)C2`: the kinetic solubility came out at 1.5 µg/mL (≈ 4.02 µM).

For `CN(C)C(Cc1ccccc1)C(=O)c1c[nH]c2ccccc12.Cl` (configuration not stated), the solubility (kinetic) was more than 49.3 µg/mL.

As for `CCOc1cccc(/C=C(\C#N)C(=O)NC2CC2)c1`, the solubility (kinetic) was 27.2 µg/mL (≈ 106 µM).

Molecule `O=S(=O)(CCNCc1cccs1)c1ccc(Cl)cc1` registered a kinetic solubility of 32.5 µg/mL (≈ 103 µM).

On to `Cn1c(SCC(=O)Nc2nccs2)nnc1C1CC1`, for which the solubility (kinetic) was more than 44.3 µg/mL.

Regarding `O=C(Nc1nc(-c2ccc(F)c(F)c2)cs1)c1cnccn1`, the kinetic solubility amounted to 0.8 µg/mL (≈ 2.51 µM).

Molecule `COC(=O)c1[nH]c2c(c1C(=O)OC)CCc1ccccc1-2` registered a solubility (kinetic) of 19.4 µg/mL (≈ 68 µM).

On to `C[C@H](NS(=O)(=O)c1ccccc1F)C(=O)OCC(=O)Nc1ccc2c(c1)OCCO2`, for which the solubility (kinetic) is more than 65.8 µg/mL.

In turn, `CCN(CC)c1ccc(C(=O)OCC(=O)Nc2ncccn2)cc1` showed a solubility (kinetic) of 2.4 µg/mL (≈ 7.31 µM).

The molecule `CC(=O)N=c1scc(-c2ccccc2)n1-c1cccc(O)c1` gave a solubility (kinetic) of 2.6 µg/mL (≈ 8.38 µM).

Molecule `O=C(NCc1ccco1)c1ccc(Cl)cc1[N+](=O)[O-]` came in with a kinetic solubility of more than 42.1 µg/mL.

As to `CC(C)(C)c1ccc(O)c(N=Cc2c(O)ccc3ccccc23)c1`, the solubility (kinetic) was less than 0.7 µg/mL.

In turn, `Cc1nc(SCc2ccccc2)c2ccsc2n1` displayed a kinetic solubility of less than 0.3 µg/mL.

In turn, `Cc1ccc(C(=O)C2=C(O)C(=O)N(Cc3ccco3)C2c2cccc(Cl)c2)o1` (configuration not stated) yielded a solubility (kinetic) of more than 59.7 µg/mL.

Regarding `CCC(=NCCc1ccc(OC)c(OC)c1)C1=C(O)CC(C)(C)CC1=O`, the solubility (kinetic) was 47.3 µg/mL (≈ 132 µM).

Turning to `c1ccc2[nH]c(SN3CCOCC3)nc2c1`, the kinetic solubility is 10.8 µg/mL (≈ 45.9 µM).

In turn, `O=C(COC(=O)c1ccc(F)c([N+](=O)[O-])c1)NC(=O)NCc1ccccc1` came in with a solubility (kinetic) of 21.3 µg/mL (≈ 56.8 µM).

Turning to `CCOC(=O)c1c(-c2ccc(C)o2)csc1NC(=O)CN1CCC(C(N)=O)CC1`, the kinetic solubility was determined as 31 µg/mL (≈ 73.9 µM).

With `O=C(CSc1ncccn1)Nc1ccc(Cl)c(S(=O)(=O)N2CCOCC2)c1`, the kinetic solubility was more than 64.3 µg/mL.

Molecule `CC(=O)Nc1ccc(C(=O)CN2C(=O)CSC2=O)cc1` registered a solubility (kinetic) of more than 43.8 µg/mL.

In the case of `COC(=O)c1ccc(-c2noc(CN(C)CC3CCCCO3)n2)cc1` (configuration not stated), the kinetic solubility was more than 51.8 µg/mL.

For `CN(C)C(=S)Nc1ccc(Br)cc1Cl`, the solubility (kinetic) turned out to be 23.4 µg/mL (≈ 79.7 µM).

As for `CCOc1ccccc1NC(=O)NCc1cccnc1`, the kinetic solubility is more than 40.7 µg/mL.

`Cc1ccc(-c2noc(CNC(=O)c3ccoc3C)n2)cc1` displayed a solubility (kinetic) of 32.6 µg/mL (≈ 110 µM).

In the case of `O=C(O)C1CC=CCC1C(=O)NCCCN1CCCC1=O` (configuration not stated), the solubility (kinetic) is more than 44.2 µg/mL.

As for `CCn1c(SCc2ccccc2)nc2cc(S(N)(=O)=O)ccc21`, the kinetic solubility is 2.2 µg/mL (≈ 6.33 µM).

Regarding `C=CCSc1nc(N)cc(=O)[nH]1`, the kinetic solubility was more than 27.5 µg/mL.

In turn, `CN(C(=O)CSc1nnc(C2CC2)n1C1CC1)C1(C#N)CCCCC1` returned a solubility (kinetic) of more than 53.9 µg/mL.

`Cc1cccc(C)c1NC(=S)N(CCN(C)C)Cc1cccs1` had a solubility (kinetic) of 45.8 µg/mL (≈ 132 µM).

For `NCCc1c(C(=O)O)[nH]c2ccc([N+](=O)[O-])cc12`, the kinetic solubility is 35.4 µg/mL (≈ 142 µM). The solubility kinetic values of the last two molecules are within 1.5-fold of each other.

In turn, `CCOc1ncccc1C(=O)Nc1cc(S(=O)(=O)N2CCOCC2)ccc1OCC(F)(F)F` showed a solubility (kinetic) of 0.5 µg/mL (≈ 1.02 µM).

Take `Cc1cc(C)nc(NC(=O)c2ccc(C)c(C)c2)n1`: the solubility (kinetic) turned out to be 35.2 µg/mL (≈ 138 µM). Compared with the last molecule, the solubility kinetic is about 70-fold higher.

`CCC(=O)OC1(Cc2ccc(CC)cc2)CC(C)N(C)CC1C.Cl` (configuration not stated) returned a solubility (kinetic) of 46.9 µg/mL. The solubility kinetic values of the last two molecules are within 1.5-fold of each other.

Regarding `CNC(=O)Cn1c(C)cc(=O)c2cccc(OC)c21`, the kinetic solubility was more than 39 µg/mL.

`O=S(=O)(O)c1cnccc1Nc1cccc(C(F)(F)F)c1` showed a solubility (kinetic) of more than 47.7 µg/mL.

As to `Cc1ccc(S(=O)(=O)Nc2nc(C)c(C(=O)NN)s2)cc1`, the kinetic solubility is more than 49 µg/mL.

Regarding `Cc1cc(-n2c(C)cc(C(=O)CN3C(=O)C(=O)N(C)C3=O)c2C)no1`, the solubility (kinetic) is more than 51.6 µg/mL.

With `CCOC(=O)C1=C(C)NC2=C(C(=O)OC2)C1c1ccccc1` (configuration not stated), the solubility (kinetic) was more than 44.9 µg/mL.

Regarding `O=C(CC(SCCO)c1ccc([N+](=O)[O-])cc1)c1ccco1` (configuration not stated), the solubility (kinetic) came to 3.7 µg/mL (≈ 11.5 µM).

`CC(C)C(=O)Nc1nnc(SCC(=O)NCC2CCCO2)s1` (configuration not stated) came in with a solubility (kinetic) of more than 51.7 µg/mL.

`O=C(COC(=O)c1ccc(F)c(S(=O)(=O)N2CCOCC2)c1)NCc1ccc(F)cc1`: the kinetic solubility is more than 68.2 µg/mL.

Molecule `N/C(=N\c1nc2ccccc2o1)NC(=O)c1cccc(Cl)c1` gave a solubility (kinetic) of less than 0.2 µg/mL.

As to `COc1ccccc1NC(=O)C1CCCN(C(=O)NCc2ccccc2)C1` (configuration not stated), the kinetic solubility was more than 55.1 µg/mL.

`COc1ccccc1C1C(C(C)=O)=C(O)C(=O)N1c1ccc(O)cc1` (configuration not stated) returned a solubility (kinetic) of more than 50.9 µg/mL.

`Br.Fc1ccc(-c2csc(NC3=NCCC3)n2)cc1` returned a kinetic solubility of 43 µg/mL.

In turn, `CCCN(CC(=O)Nc1ccc(Cl)cc1Cl)C(=O)c1ccc(=O)[nH]c1` displayed a kinetic solubility of more than 57.3 µg/mL.

`Cc1cc(Nc2ccc(C)c(C)c2)c2ccccc2n1`: the kinetic solubility was more than 39.4 µg/mL.

`O=C(C#Cc1ccccc1)Nc1ccccc1F` had a kinetic solubility of 25.4 µg/mL (≈ 106 µM).

Regarding `Cc1ccc(S(=O)(=O)N(C)C)cc1NC(=O)C(C)OC(=O)C1CCC1` (configuration not stated), the solubility (kinetic) is more than 55.3 µg/mL.

In the case of `CCCCCCCC(=O)NC1=NC(=O)C(C)(C)S1`, the kinetic solubility was found to be 5 µg/mL (≈ 18.5 µM).

Take `c1ccc(NCc2ccccn2)cc1`: the kinetic solubility came to 24.6 µg/mL (≈ 134 µM).

Turning to `CC1c2cccn2CCN1S(=O)(=O)c1ccccc1` (configuration not stated), the solubility (kinetic) was found to be 40.3 µg/mL (≈ 146 µM).
